For one data set, the system named is PDGFR-tr-HEK cells. Briefly: In vitro binding kinetics on PDGFRβ-transfected HEK293 cells. The arrangement: species or system human. To be noted: kinetic studies, vs HEK293wt and CaIX-tr-HEK cells, 37°C, serum-free medium, p < 0.05. The protocol:
(§1) Three hundred thousand BxPC3, MCF7, PDGFRβ-tr-HEK, CaIX-tr-HEK, or HEK293wt cells were cultivated in six-well plates at 37°C for 24 h. Cells were blocked with RPMI 1640 containing 1% milk powder and the medium was replaced with 1 ml fresh medium (without FCS) containing 0.5–1.5 × 10^6 cpm ^125I-labeled peptide. After incubation at 37°C for various time periods (10 min to 6 h), the medium was removed and the cells were washed with PBS. Subsequently, cell lysis was performed with 0.5 ml NaOH 0.3 M and the bound radioactivity was measured with a γ-counter and calculated as percentage applied dose per 10^6 cells. Specific binding was determined through co-incubation of the radioligand with the unlabeled PDGFR-P1 peptide at various concentrations (10^−4 to 10^−10 M). A dodecapeptide identified with phage display by panning against the extracellular domain of human carbonic anhydrase IX (CaIX-P1) as well as a derivative of a dodecapeptide identified with phage display on prostate carcinoma cells (DUP-1–9) were used as negative control competitors.

A further data set in a line: Stability in human serum. It counts as in vitro ADME. The following applies: 37°C, HPLC analysis. The method, then:
The stability of PDGFR-P1 was investigated in human serum. ^125I-labeled peptide was incubated at 37°C in human serum. At time points varying from 5 min to 20 h, aliquots were taken, mixed with equal volume acetonitrile, to precipitate serum proteins and centrifuged for 5 min at 13,000 rpm. Serum degradation products were determined by HPLC analysis of the supernatant.

In the next data set the test system is BxPC3 tumors. Briefly: in vivo. The arrangement: species or system Balb/c nu/nu mice. To be noted: female, Balb/c nu/nu, mouse, iv, 1 MBq, 0.25 h. The method, then:
(§2) Organ distribution studies were carried out in 9-week-old female Balb/c nu/nu mice (Charles River WIGA), carrying subcutaneously transplanted human pancreatic cancer BxPC3 tumors. Tumor implantation was performed through injection of a cell suspension (4 × 10^6 cells in OPTI-MEM) (Gibco, Invitrogen Life Technologies) into the mouse trunk. After the tumors were grown to a size of approximately 1.0 cm^3, 1 MBq of ^131I-labeled PDGFR-P1 was injected into the tail vein, and at 15 min p.i. the animals were euthanized. Tumor, blood, and healthy tissues were removed, weighed, and measured with a γ-counter (LB […]; Berthold Technologies). Organ uptake calculation was performed as percentage injected dose per gram tissue (% ID/g). To avoid bias due to blood background radioactivity, uptake in blood-free organs was determined with perfusion experiments. Within these experiments, blood was removed through a catheter in the ascending aorta of the anesthesized animal and perfusion with approximately 25 ml 0.9% NaCl was performed via a cut in the animal liver. After perfusion, samples of tumor and organs were removed and measured as described. All animal experiments were carried out in conformity with the German and European laws for animal protection.

A further data set can be described thus: in vivo. Further details: species or system Balb/c nu/nu mice. The following applies: female, Balb/c nu/nu, mouse, iv, 1 MBq, total radioactivity; for tissue to tissue ratio at 0.25 h: Tumor-to-organ ratio. The method, then: as §2
The next data set is described as follows: human serum. To be noted: 37°C, up to 20 h.
A further data set has as its system BxPC3 cells. It counts as binding, human. To be noted: 24 h. The method, then:
as §1

Data set [1] has as its target T1, extracellular domain of human PDGFRβ (Homo sapiens, UniProt P09619).
T1 construct: The extracellular domain of PDGFRβ was recombinantly synthesized using the Flp-In system; Fc (Fcγ from pSEC-EGP-2-Fcγ vector) (C); made in house; host or cells: Flp-In-293 human embryonic kidney cells
In kind it is binding. The following applies: pH 7.4. The protocol: Binding of ^125I-labeled PDGFR-P1 was investigated on immobilized extracellular domain of human PDGFRβ, EGFR, and FGFR. The target proteins were incubated at a concentration of 25 nM in 96-well Maxisorp^TM plates (Nunc GmbH & Co. KG, Germany) for 24 h and the plates were washed thrice with 100 μl PBS pH 7.4. ^125I-labeled PDGFR-P1 was incubated with the target in 100 μl PBS pH 7.4 for 60 min. The unbound activity was removed by washing with 300 μl ice-cold PBS pH 7.4. Bound radioligand was determined through degradation with 100 μl NaOH 0.3 M and radioactivity measurement. Radioligand binding was calculated as percentage applied dose.

Where a SMILES comes first, the peptide text is derived from it. [ ]: non-standard residue; d: D form. Tyr(3-I) = N[C@@H](Cc1ccc(O)c(I)c1)C(=O)O

The values below come from paper PMC3591530 (Molecular Imaging and Biology, 2012).

A word on the half-life: it is the time in which the quantity being followed falls by half. Usually tissue uptake stands for the percentage of the injected dose found per gram of tissue. In general, IC50 refers to the concentration that gives 50% inhibition.

T1 sequence (P09619 33-532 limits assumed): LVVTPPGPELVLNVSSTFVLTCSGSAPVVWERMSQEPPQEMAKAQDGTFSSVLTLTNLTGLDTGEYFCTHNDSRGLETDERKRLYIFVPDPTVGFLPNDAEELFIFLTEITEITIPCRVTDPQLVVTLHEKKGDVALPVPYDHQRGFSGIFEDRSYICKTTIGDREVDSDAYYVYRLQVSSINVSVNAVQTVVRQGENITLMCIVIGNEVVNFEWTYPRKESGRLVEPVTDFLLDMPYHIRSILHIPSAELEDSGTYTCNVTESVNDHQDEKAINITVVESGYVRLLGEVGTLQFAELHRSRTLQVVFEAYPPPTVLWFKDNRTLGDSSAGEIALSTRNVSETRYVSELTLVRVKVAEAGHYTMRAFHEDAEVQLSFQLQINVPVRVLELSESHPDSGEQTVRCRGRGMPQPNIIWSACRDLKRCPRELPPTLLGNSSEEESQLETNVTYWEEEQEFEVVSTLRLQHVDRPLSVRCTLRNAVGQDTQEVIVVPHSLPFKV

Consider `CC[C@H](C)[C@H](N)C(=O)N1CCC[C@H]1C(=O)N[C@@H](CC(C)C)C(=O)N1CCC[C@H]1C(=O)N1CCC[C@H]1C(=O)N1CCC[C@H]1C(=O)N[C@@H](CO)C(=O)N[C@@H](CCCNC(=N)N)C(=O)N1CCC[C@H]1C(=O)N[C@@H](Cc1ccccc1)C(=O)N[C@@H](Cc1ccccc1)C(=O)N[C@@H](CCCCN)C(=O)N[C@@H](Cc1ccc(O)c(I)c1)C(N)=O` [^125I-labeled PDGFR-P1] (H-IPLPPPSRPFFK[Tyr(3-I)]-NH2; N-terminus assumed), for which the “Binding on PDGFR-tr-HEK cells compared to negative controls” value in the data set with PDGFR-tr-HEK cells is recorded as “significantly increased binding”. In the data set “Stability in human serum”, the Degradation product analysis entry is reported as “cleavage of the C-terminal tyrosine over time”. Moreover, the half-life in “Stability in human serum” (aliquots 5 min to 20 h, acetonitrile precipitation) came out at 4 min.

For `CC[C@H](C)[C@H](N)C(=O)N1CCC[C@H]1C(=O)N[C@@H](CC(C)C)C(=O)N1CCC[C@H]1C(=O)N1CCC[C@H]1C(=O)N1CCC[C@H]1C(=O)N[C@@H](CO)C(=O)N[C@@H](CCCNC(=N)N)C(=O)N1CCC[C@H]1C(=O)N[C@@H](Cc1ccccc1)C(=O)N[C@@H](Cc1ccccc1)C(=O)N[C@@H](CCCCN)C(=O)N[C@@H](Cc1ccc(O)c(I)c1)C(N)=O` [^131I-labeled PDGFR-P1] (H-IPLPPPSRPFFK[Tyr(3-I)]-NH2; N-terminus assumed), in the data set with BxPC3 tumors, the “Tumor-to-organ ratio, Brain” value amounted to 9.083. In addition, the “Tumor-to-organ ratio, Intestinum” value in the data set with BxPC3 tumors amounted to 1.321. For the same molecule, in the data set on BxPC3 tumors, the “Tumor-to-organ ratio, Kidney” value is recorded as 0.379. In addition, in the data set with BxPC3 tumors, the “Tumor-to-organ ratio, Muscle” value came out at 2.530. In addition, the “Tumor-to-organ ratio, Spleen” value with BxPC3 tumors was determined as 1.601. The figures for the tissue uptake at 0.25 h in “in vivo” (Activity concentration in blood), in “in vivo” (Activity concentration in kidney) and in the data set “in vivo” (Tumor accumulation) were 5.4 %ID/g, 10.6 %ID/g and 3.2 %ID/g, respectively. In addition, the tissue to tissue ratio at 0.25 h in “in vivo” (Brain) was 8.7; in “in vivo” (Intestinum), 1.43; in “in vivo” (Kidney), 0.299; in the data set “in vivo” (Muscle), 2.15; in “in vivo” (Spleen), 1.42.

On to IPLPPPSRPFFKY-NH2, for which, in “human serum”, the cleaved bond entry is “K-Y” and the fragment found result was “Y-OH”.

In the case of `CC[C@H](C)[C@H](N)C(=O)N1CCC[C@H]1C(=O)N[C@@H](CC(C)C)C(=O)N1CCC[C@H]1C(=O)N1CCC[C@H]1C(=O)N1CCC[C@H]1C(=O)N[C@@H](CO)C(=O)N[C@@H](CCCNC(=N)N)C(=O)N1CCC[C@H]1C(=O)N[C@@H](Cc1ccccc1)C(=O)N[C@@H](Cc1ccccc1)C(=O)N[C@@H](CCCCN)C(=O)N[C@@H](Cc1ccc(O)cc1)C(N)=O` [PDGFR-P1] (H-IPLPPPSRPFFKY-NH2), the concentration for half-maximal inhibition (IC50) in the data set with BxPC3 cells stood at 1.4 µM. Moreover, in data set [1], the “Binding of the radioligand (percentage applied dose)” value was “about 18%”.
